BindingDB's records for doi:10.1021/acs.jmedchem.6b00705 (Leiden Institute of Chemistry, 2016)

Key:
[1] = target: Proteasome subunit beta type-2 (Homo sapiens, UniProt P49721); assay: Inhibition of catalytic activity of constitutive proteasome 20s subunit beta2 in human Raji cells incubated for 1 hr by BODIPY(FL)-LU-112 probe based competitive activity based protein profiling assay
[2] = Inhibition of catalytic activity of immunoproteasome 20s subunit beta2 in human Raji cells incubated for 1 hr by BODIPY(FL)-LU-112 probe based competitive activity based protein profiling assay

Row | SMILES | IC50 [1] [nM] | IC50 [2] [nM]
1 | CC(C)C[C@H](NC(=O)CN1CCOCC1)C(=O)N[C@@H](C[C@H]1CC[C@H](C2CCCCC2)CC1)C(=O)N[C@@H](Cc1ccccc1)C(=O)N[C@@H](C)C(=O)[C@@]1(C)CO1 | > 100000 | > 100000
2 | C[C@H](NC(=O)[C@H](Cc1ccccc1)NC(=O)[C@H](C[C@H]1CC[C@@H](c2ccccc2)CC1)NC(=O)[C@H](Cc1ccccc1)N=[N+]=[N-])C(=O)[C@@]1(C)CO1 | > 100000 | 300
3 | C[C@H](NC(=O)[C@H](Cc1ccccc1)NC(=O)[C@H](C[C@H]1CC[C@H](c2ccccc2)CC1)NC(=O)[C@H](Cc1ccccc1)N=[N+]=[N-])C(=O)[C@@]1(C)CO1 | > 100000 | > 100000

The next lines start with the values.

Row | IC50 [1] [nM] | IC50 [2] [nM] | SMILES
4 | > 1000 | > 1000 | CC1=C(C(=O)N[C@H](C)C(=O)N[C@@H](Cc2c[nH]c3ccccc23)C(=O)N[C@@H](CC2CCCCC2)C(=O)[C@@]2(C)CO2)Cc2ccccc21
5 | 110 | – | COc1ccc(C[C@H](NC(=O)[C@H](Cc2ccccc2)N=[N+]=[N-])C(=O)N[C@@H](Cc2ccccc2)C(=O)N[C@@H](CC(C)C)C(=O)[C@@]2(C)CO2)cc1
6 | 60 | – | CC(C)C[C@H](NC(=O)[C@H](Cc1ccccc1)NC(=O)[C@H](CCc1ccccc1)NC(=O)[C@H](Cc1ccccc1)N=[N+]=[N-])C(=O)[C@@]1(C)CO1
7 | 46 | – | CC(C)C[C@H](NC(=O)[C@H](Cc1ccccc1)NC(=O)[C@H](CC1CCC(C)CC1)NC(=O)[C@H](Cc1ccccc1)N=[N+]=[N-])C(=O)[C@@]1(C)CO1 (some centres not stated)
8 | 66 | – | CC(C)C[C@H](NC(=O)[C@H](Cc1ccccc1)NC(=O)[C@H](Cc1ccccc1)NC(=O)[C@H](Cc1ccccc1)N=[N+]=[N-])C(=O)[C@@]1(C)CO1 [(S)-2-azido-N-((S)-1-((S)-1-((S)-4-methyl-1-((R)-2-methyloxiran-2-yl)-1-oxopentan-2-ylamino)-1-oxo-3-phenylpropan-2-ylamino)-1-oxo-3-phenylpropan-2-yl)-3-phenylpropanamide]
